# Results reported in patent US12479800B2, “Phenylpropionamide compound and use thereof” (MEDSHINE DISCOVERY INC., priority 2020, dated 2025).
# Where a SMILES comes first, the peptide text is derived from it. [ ]: non-standard residue; d: D form. The star is where a group is joined. Gly(N-(2R-Ph-propyl)) = C[C@@H](CNCC(=O)O)c1ccccc1; Piperidin1yl(4-NH2,4-COOH) = NC1(C(=O)O)CCN(*)CC1; dGly(cPent) = N[C@@H](C(=O)O)C1CCCC1; dAla(cPr) = N[C@H](CC1CC1)C(=O)O; X1 = CC(=O)N1CC2(CCN(*)CC2)C1
# Tests used:
# [1] = In vivo pharmacokinetic study in SD rats; parameters: species or system Sprague Dawley rats; conditions: intravenous 3 mg/kg
# Procedure: To test the in vivo pharmacokinetics of test compound in SD rats
# Sprague Dawley rats (male, 6 to 10 weeks old, purchased from Beijing Vital River Laboratory Animal Co., LTD)
# Compound 1 was mixed with normal saline to prepare a clear solution of 1 mg/mL for injection group administration, filtered by microporous membranes and ready for use. The test compound was administered intravenously at 3 mg/kg, and the solvent for intravenous administration was normal saline. Plasma samples were collected at 0, 0.083, 0.25, 0.5, 1.0, 2.0, 4.0, 8.0 and 24 hours after administration. The plasma concentration was determined by LC-MS/MS method, and the relevant pharmacokinetic parameters were calculated by non-compartmental model linear logarithmic trapezoidal method using WinNonlin™ Version 6.3 (Pharsight, Mountain View, CA) pharmacokinetic software.
# Human hepatocyte = experiment: Metabolic stability (HMS) study in human hepatocytes; type: in vitro ADME; conditions: 0.5×10^6 cells/mL
# Procedure: (§1) To test the metabolic stability of the test compound in human and rat hepatocytes.
# (§2) 2.1 Test Compound (10 mM), Reference Substance: 7-Ethoxycoumarin, 30 mM, 7-Hydroxycoumarin, Reference Substance, 30 mM
# (§3) Culture medium for thawing: Williams' E medium containing 5% fetal bovine serum and 30% Percoll solution and other auxiliary materials.
# (§4) Culture medium for incubation: Williams' E medium (without phenol red), wherein containing 2 mM L-glutamine and 25 mM of hydroxyethyl piperazine ethanesulfonic acid.
# (§5) Termination solution: acetonitrile containing 200 ng/mL of tolbutamide and labetalol as internal standard.
# (§6) Dilution solution: ultrapure water. […]
# (§7) The elimination rate constant k of the test compound and the control compound in hepatocyte was calculated by plotting the logarithm of the time to the residual rate, and the half-life (T1/2) and the intrinsic clearance rate in vitro (CLint) were obtained by the elimination rate constant k with the following formula: T1/2=0.693/k CLint(hep)=k/number of cells per mL(million cells/mL) CLint(liver)=CLint(hep)×ratio of liver weight to body weight×number of hepatocytes per gram of liver […]
# Rat hepatocyte = experiment: Metabolic stability (HMS) study in rat hepatocytes; type: in vitro ADME; conditions: 0.5×10^6 cells/mL
# Procedure: as §1, §2, §3, §4, §5, §6, §7
# Kappa receptor = Kappa receptor (Homo sapiens (Human), UniProt P41145); experiment: cAMP test of Kappa receptor; type: cell-based; conditions: KOR cAMP cells; read-out: EC50 value of the compound to Kappa receptor
# Procedure: Experimental Embodiment 1: cAMP Test of Kappa Receptor
# Experimental buffer: 1*HBSS (+/+) (SIGMA #H1387)+20 mM HEPES (LONZA #17-737E)
# Stimulation buffer (STB): 200 μM IBMX (SIGMA #I7018) and 3 μM NKH477 (SIGMA #N3290) experimental buffer
# Experimental Methods and Steps
# The compound powder was dissolved with DMSO (Amresco #0231), and the concentration of the compound solution was 10 mM. 1 μL of the test compound was taken, and 49 μL of DMSO was added thereto, and the mixture was diluted to 200 μM of solution.
# A LDV 384-well plate was taken, and the compound solution diluted in the previous step was respectively added to wells A1 to H1; a pre-prepared 200 μM of U-50488 (Tocris #0495/25) was taken and added to well P1; 10.8 μL of DMSO was added to each well of A2 to A11, […], and P2 to P11, respectively, and the mixture was centrifuged at 1000 rpm for 30 seconds.
# Continuous gradient dilutions of compounds were performed with bravo, and the first column of LDV plate prepared in the previous step was taken as the initial concentration column, and 5 μL was sucked into the next column each time and blown and mixed evenly.
# After the dilution was completed, 10 μL 200 μM of U-50488 was added to well A24 as HPE (100% inhibition rate activity), and 10 μL of DMSO was added to well P24 as ZPE (0% inhibition rate activity), and the mixture was centrifuged at 1000 rpm for 30 seconds.
# According to the experimental layout, the compound solution diluted in the previous step was transferred to the experimental plate Corning 3824 with Echo 550, 50 nL per well.
# A set of frozen KOR cAMP cells was taken from the −80° C. refrigerator and thawed in a 37° C.-water bath.
# After thawing, the cells in the tube were aspirated into a 15 mL centrifuge tube, and 4 mL of experimental buffer was added thereto. […]
# Cell density was counted and adjusted on a cell counter to 1.5*10^6 cells/mL. […]
# Experimental plates were read with Envision.
# [2] = Plasma protein binding rate (PPB) test, SD rat plasma; type: in vitro ADME; conditions: 2 μM, equilibrium dialysis 4 hours 37° C.
# Procedure: (§8) To test the protein binding rate of the test compound in human and SD rat plasma.
# (§9) The frozen plasma was thawed in flowing cold tap water, and then the plasma was centrifuged at 3220×g for 5 minutes to remove the suspension and precipitate. The pH of plasma was determined, and only the plasma with a pH between 7.0 to 8.0 could be used for experiments.
# (§10) The experiment was used a 96-well balanced dialysis plate (HTDialysis device) to determine the plasma protein binding rate of the test compound and control compound. Before the experiment was started, the dialysis membrane was pretreated according to the description, and then the dialysis device was assembled as required. The blank plasma of human and SD rats (plasma purchased from BioreclamationIVT) was taken, and the test compound working solution or the warfarin working solution was added to make the final concentration of the test compound and warfarin in the plasma samples both 2 μM. The sample was mixed well. […] The unbound rate (Unbound) %, bound rate (Bound) % and recovery rate (Recovery) % of the compound were calculated by the following formula: % Unbound=100*FC/TC, % Bound=100−% Unbound, % Recovery=100*(FC+TC)/T0. […]
# [3] = Plasma protein binding rate (PPB) test, human plasma; type: in vitro ADME; conditions: 2 μM, equilibrium dialysis 4 hours 37° C.
# Procedure: as §8, §9, §10
Compound,AUC0-last [1] [µM·h],Cl (total clearance rate) [1] [mL/min/kg],T1/2 (elimination half-life) [1] [h],Vdss (steady-state apparent volume of distribution) [1] [L/kg],C0 ([1]; read-out: C0 (initial concentration)) [µM],Intrinsic clearance rate in liver (Human hepatocyte) [mL/min/kg],Intrinsic clearance rate in liver (Rat hepatocyte) [mL/min/kg],EC50 (Kappa receptor) [nM],Unbound rate in plasma [2] [%],Unbound rate in plasma [3] [%]
"C[C@@H](CNCC(=O)N[C@H](Cc1ccccc1)C(=O)N[C@H](CC1CC1)C(=O)N[C@H](CCCCN)C(=O)N1CCC(N)(C(=O)O)CC1)c1ccccc1 [Compound 1] (H-[Gly(N-(2R-Ph-propyl))][dF][dAla(cPr)][dK]-{Piperidin1yl(4-NH2,4-COOH)})",7.2,9.90,1.33,0.29,17.6,<17.8,<29.9,0.085,44.7,55.2
"C[C@@H](CNCC(=O)N[C@H](Cc1ccccc1)C(=O)N[C@@H](C(=O)N[C@H](CCCCN)C(=O)N1CCC(N)(C(=O)O)CC1)C1CCCC1)c1ccccc1 [Compound 2] (H-[Gly(N-(2R-Ph-propyl))][dF][dGly(cPent)][dK]-{Piperidin1yl(4-NH2,4-COOH)})",,,,,,,,0.311,,
CC(=O)N1CC2(CCN(C(=O)[C@@H](CCCCN)NC(=O)[C@@H](CC3CC3)NC(=O)[C@@H](Cc3ccccc3)NC(=O)CNC[C@H](C)c3ccccc3)CC2)C1 [Compound 4] (H-[Gly(N-(2R-Ph-propyl))][dF][dAla(cPr)][dK]-X1),,,,,,,,0.034,,
